Patent publication US20250100961A1, “CHEMICAL ENTITIES FOR TREATING ACUTE MUSCULOSKELETAL PAIN, NON-SPECIFIC LOW-BACK PAIN, INFLAMMATORY ARTHRITIS RELATED DISEASES AND CONDITIONS, AND COMPOSITIONS AND METHODS THEREOF” (X-Cutag Therapeutics (Suzhou) Limited, priority 2023, published 2025)

How the values were obtained:
[1] = Administration of CTG06-06 and methocarbamol to rats, LC-MS/MS of urine for parent drug and conjugates; format: in vivo; details: rat urine
From the text: Differentiation in drug conjugation reactions. […] […] Conjugation is a phase II metabolism reaction in which an acid, for example, glucuronic acid, acts as a conjugating agent to link to a phase I metabolite covalently. The conjugate so formed would be excreted to urine. To most drugs, this is a necessary detoxicating process. As for methocarbamol, this could be a disadvantage because the acid directly forms a conjugate with the drug itself, not its metabolite, and thus, to reduce drug plasma concentration level immediately after administration. This is due to the presence of an OH group in the chemical structure of methocarbamol, which readily allows it to form conjugates with an acid. To inhibit this pathway, CTG06-06 was designed with the OH group replaced by a fluorine (F). This modification is anticipated to slow the drug elimination rate while maintaining a consistently high drug plasma concentration.
Example 3: Co-Administration of CTG06-06 and Methocarbamol (1:1) to Rats and LC-MS/MS Analysis of Rat Urine Samples
Rat urine samples were collected after an oral dose of CTG06-06 and methocarbamol at 1:1 ratio (0.5 mg/kg each).

[2] = oral; cited from earlier work
liver = details: in vivo; cited from earlier work
[3] = system: skeletal muscle contractility or motor nerve fiber; details: cited from earlier work
[4] = Co-incubation of methocarbamol and CTG06-05 in rat liver microsomes (1/1); format: in vitro ADME; details: co-incubated 1/1, FIG. 1
From the text: Differentiation in drug elimination half-lives. […] The elimination half-life (T1/2) is the time it takes for the elimination processes to reduce the concentration level or the amount of drug in the system by 50%. Elimination half-life is a composite pharmacokinetic parameter determined by both clearance and volume of distribution (Vd). Elimination half-life is increased by an increase in volume of distribution or a decrease in clearance, and vice versa.
Preparation of Reaction Mixture: The microsome reaction mixtures were prepared as follows: for a total volume of 285 μL of reaction mixture, 274.5 μL of 1×PBS, 3 μL of the test compound, and 7.5 μL of 5 mg/mL microsomes were added. As a negative control, microsome-free samples were prepared by substituting the microsome solution in the reaction mixture with an equal volume of 1×Phosphate Buffer Solution (pH 7.4). The reaction mixture was prepared in triplicates. In addition, dextromethorphan was used in this assay as a positive control.
Incubation and Processing of Reaction: The reaction mixture was initiated by adding 10 μL of NADPH and incubated in a water bath at 37° C. […]
LC-MS/MS analysis: Reversed-phase liquid chromatographic separation was carried out using ACE 3 C18 column (50×2.1 mm id, 3 μm). […] Compounds were monitored in positive mode over a five-minute acquisition period using a triple quadrupole mass spectrometer. […]

[5] = IV co-administration of CTG06-05 and methocarbamol (1:1) to mice, plasma concentrations by LC-MS/MS; format: in vivo; details: mouse plasma, 1/1 co-administration, IV 0.5 mg/kg each, FIG. 2
Protocol: Example 2: Co-Administration of CTG06-05 and Methocarbamol (1:1) to Mice and LC-MS/MS Analysis of Mouse Plasma Samples
Mouse plasma samples were collected at intervals of 2, 7, 10, 15, 30, 45, and 60 minutes after an IV dose of CTG06-05 and methocarbamol at a 1:1 ratio (0.5 mg/kg each). Plasma samples were extracted via protein precipitation. The supernatant at each time point was transferred to a clean vial and analyzed by LC-MS/MS as described in Example 1.

[6] = Co-administration of methocarbamol and CTG06-05 in rats, plasma time-concentration curves; format: in vivo, rat
From the text: Differentiation in drug toxicity profiles. Methocarbamol and CTG06-05 were co-administered in rats and plasma samples were collected at various timepoints. […] This indicates a distinct toxicity profile for CTG06-05 compared to methocarbamol, particularly when the toxicity is driven by Cmax. Cmax is the maximum (or peak) plasma concentration that a drug achieves in a specified compartment or test area of the body after the drug has been administered.
Differentiation in drug distribution volumes. Concentration ratios of CTG06-05 to methocarbamol in rat plasma samples from the aforementioned experiment were determined. […] Drug distribution volume (Vd) is defined as the total amount of drug in the body divided by its concentration in plasma. Vd reflects the degree to which the drug is present in extravascular tissues rather than in the plasma. Therefore, when the total amount of drug is the same, for example, 1:1 co-administration, drug plasma concentration is a direct parameter in Vd comparison. In other words, the higher the concentration, the lower the Vd.

## COc1ccccc1OCC(O)COC(N)=O (stereo not drawn) [methocarbamol]
[1]; co-administered, oral 0.5 mg/kg each, LC-MS/MS, FIG. 4
  conjugates of the drug in urine: methocarbamol and its conjugates were detected
[2]
  time to peak plasma concentration: two
liver
  liver toxicity: No liver toxicity is observed
[3]
  direct effect on skeletal muscle contractility or motor nerve fiber: no direct effect

## COc1ccccc1OCC(F)COC(N)=O (stereo not drawn) [CTG06-06]
[1]; separate administration (FIG. 4 legend)
  drug conjugation reaction: eliminates the drug conjugation reaction in rats

## [2H]c1c([2H])c([2H])c(OC([2H])([2H])[2H])c(OCC(O)COC(N)=O)c1[2H] (stereo not drawn) [CTG06-05]
[4]
  drug elimination half-life compared to methocarbamol: longer drug elimination half-life compared to methocarbamol
[5]
  C0 compared to methocarbamol: lower C0
  T1/2 compared to methocarbamol: longer T1/2
[6]; inferred from plasma concentrations after 1:1 co-administration
  drug distribution volume (Vd) compared to methocarbamol: lower Vd value than methocarbamol
[6]; rat plasma, co-administered, FIG. 2
  initial concentration in plasma compared to methocarbamol: lower than that of methocarbamol
[6]; rat plasma, co-administered, FIG. 3
  concentration ratio of CTG06-05 to methocarbamol in plasma: increased with time
[6]; rat plasma, co-administered, later timepoints, FIG. 2
  later concentration in plasma compared to methocarbamol: eventually exceeded that of methocarbamol
